Read-outs that look alike come from different tables or passages of the source.
Legend:
[1] = test system: human melanoma cell lines (A375, Sk-mel-28, wm115) compared to normal human HEK-293 cells; assay: Peptide array-whole cell binding assay (CyQUANT fluorescence); type: cell-based; conditions: average fluorescent intensity of melanoma cells (A375, Sk-mel-28, wm115) bound to peptide divided by that of HEK-293 cells bound to same peptide
Source text: Peptide array synthesis. Fifty-three peptide sequences were synthesized in duplicate on derivatized cellulose membrane (Intavis, Germany) using a ResPep SL Autospot robot. The detailed method was explained previously (Ahmed et al. Anal Chem. 82:7533-7541, 2010; Hossein-Nejad-Ariani et al. Sci Rep. 9:2723, 2019). Briefly, the sequences of peptides were entered in the robot software, and 384 spot synthesis mode was selected for this library. First, the membrane was dipped in DMF for an hour followed by transfer and support to the holder of the robot on filter paper. Then the membrane was washed with ethanol and subjected to a vacuum to remove any bubbles under the membrane. The Fmoc strategy was used for peptide synthesis. DIC and Oxyma pure were used as coupling reagent and racemization suppressor, respectively. After each coupling, capping of unreacted amino acids was done using acetic anhydride (3%), followed by 20% piperidine for Fmoc deprotection. The C-terminal end of all peptides were bound to the membrane. Following the synthesis, the membrane was dipped in deprotection solution containing 15 mL TFA, 15 mL DCM, 900 μL TIPS, and 600 μL water, and kept for 3 h at room temperature. Next, membranes were thoroughly washed with DCM, DMF, and ethanol. Finally, they were air dried and kept in a sealed bag at −20° C. until use.
Peptide array cell binding assay. The sequential steps of the assay are as described in a previous publication (Ahmed et al. 2010; Soudy et al. J Med Chem. 54:7523-7534, 2011). The membrane was dipped in ethanol for 30 sec to remove any precipitation of hydrophobic peptides. Then the membrane was dipped in sterile PBS at pH 7.4 for 30 min. The cells (75×10^3 cells/mL) were seeded directly on the membrane in a sterile plate and incubated at 37° C. for 4 h. After washing off the unbound cells with sterile PBS, pH 7.4, the membrane was frozen at −80° C. for 2 h. Subsequently, it was defrosted at room temperature and incubated in CyQUANT solution at 37° C. for 30 min following the manufacturer's protocol. The membrane was then washed with sterile PBS and air-dried.
Membranes were scanned using the ChemiDoc™ XRS+system (Bio-Rad) to analyze the fluorescence intensity of each spot. The setting was adjusted based on the excitation and emission wavelength of the CyQUANT dye at 465 nm and 535 nm, respectively. The fluorescence intensity (FI) was normalized by the FI of non-cancerous HEK-293 cells.
A library of 53 peptides was synthesized in an array format on a cellulose membrane using SPOT synthesis (Table 1). The peptide library was designed starting with five lead cancer cell targeting peptides, Arg peptide (1, Table 1), p160 analogue (11), RGD (16), GE11 (20), and LSD (37). Conservative substitutions, deletion from the N- or C-terminus, alanine scan, and scrambling of amino acids were used to design the analogues for the library. The peptides were screened for specific binding to three human melanoma cell lines. The cells were incubated with the cellulose membranes with conjugated peptides followed by incubation with CyQUANT fluorescence dye. A brief schematic for the peptide array-whole cell binding assay for screening peptides with high affinity for melanoma cells is shown in FIG. 2A. The relative cell adhesion capacities of the peptides to A375 (FIG. 2B), Sk-mel-28 (FIG. 2C), and wm115 were estimated based on the fluorescence of the bound melanoma cells compared to normal human HEK-293 cells.

A375 melanoma cells = assay: In vitro cytotoxicity detected by MTT colorimetric assay; type: cell-based, human
Description: The bar represents the average fluorescence density of three cell lines (A375, Sk-mel-28, and wm3211 cells) detected by fluorescence-activated cell sorting (FACS) analysis. The cells were incubated with FITC-labeled peptide for […] at 37° C. (0.5 μM, grey bar; 1 μM, dark bar). The control is cells incubated with FITC alone. […] Cells were either treated with DOX or co-treated with DOX and KK-11 (1 μM) for 72 h (KK-11+DOX) or pretreated with KK-11 for 4 h, then washed away following a DOX 72 h treatment (KK-11 to DOX). Control is DMSO or KK-11 alone. Cell viability was detected by a MTT colorimetric assay. Statistical analysis was performed with a student's t-test, and error bars denote mean±SD; **, p<0.01; ***, p<0.001 compared to DOX alone. […] Cells were treated with MAC-3-190 at various concentrations with or without 1 μM KK-11 for 72 h. Cell viability was detected by MTT assay. The assays were repeated independently at least three times.
In vitro cytotoxicity detected by MTT colorimetric assay. Cells were seeded in a 96-well plate and allowed to adhere overnight prior to adding the compound. After 72 h of treatment in serum-free media, an MTT solution was added to each well to give a final concentration of 0.5 mg/mL and was incubated for 3 h. Formed crystals were solubilized, and the absorbance was measured at 595 nm.

[2] = test system: human melanoma A375 tumor xenografts and organs; assay: In vivo and ex vivo imaging of biodistribution in mice bearing A375 xenografts; parameters: species or system athymic nude mice
Description: FIG. 4A and FIG. 4B-1 and FIG. 4B-2 show in vivo and ex vivo organ distribution images of VivoTag 680 XL-labeled D-aa KK-11 in athymic nude mice bearing human melanoma A375 tumors. Saline or VivoTag-KK-11 in a dose of 8 μg per mouse was injected into the mice via the tail vein (n=2 for each time point).
The top panels represent the scanned images of the tumor section area in coronal views. The bottom-row pictures display the fluorescence image in trans-axial views: arrows point to the spine, and circles mark the xenograft tumors.
Organs including tumor xenografts (T), liver (L), spleen (S), heart and lungs (H+L), kidneys (K), and brain (B) were excised and imaged using the IVIS Spectrum imaging system. Representative fluorescence images of different organs show peptide distribution at different time points as indicated.
Ex vivo and in vivo imaging. The study was carried out in compliance with Animal Research: Reporting of In Vivo Experiments (ARRIVE) guidelines. All the animal procedures were approved by the Institutional Animal Care and Use Committee (IACUC) at Chapman University and conducted in compliance with the policies of Chapman University, and federal, state, and local animal welfare authorities. Male and female athymic nude mice (4-6 weeks old) were kept (5 in each cage) in a pathogen-free environment. Approximately 10^6 human melanoma A375 cells (0.1 mL in normal saline), mixed with 0.1 mL cold Matrigel (#354248; Corning, Corning, NY), were injected subcutaneously in the flank. The tumor size was measured with a caliper, and body weight was recorded once a week. When the tumor size reached approximately 800-1000 mm^3 as calculated using the following formula: [Length×(Width^2)]/2 (in mm), mice were processed for in vivo or ex vivo imaging.
For in vivo imaging, normal saline or VivoTag-KK-11 at a dose of 8 μg per mouse was injected into the mice via the tail vein (n=2 for each time point). The animals were then scanned at different time intervals (0.5, 2, 6, and 24 h) using an IVIS Spectrum in vivo imaging system (PerkinElmer, Waltham, MA). The mice were imaged for 0.5 sec, 10 bin, level B at an emission wavelength of 688±5 nm. Imaging was limited to no more than once a day and was conducted under continuously maintained isoflurane. Mice were maintained on alfalfa-free diets to minimize the background fluorescence. All the study animals survived through the in vivo imaging procedure.
For ex vivo imaging at defined time intervals (5, 15, 30 min, followed by 1, 1.5, 2, 3, 4, 6, 24, and 48 h) following fluorescence conjugate injection, animals were euthanized via carbon dioxide inhalation (n=2 for each time point); tumor, liver, spleen, heart, lungs, brain, and kidneys were collected and briefly rinsed with saline. The organs were then imaged for 0.5 sec, 10 bin, level B at an emission wavelength of 688±5 nm using an IVIS Spectrum imaging system.

[3] = in vivo IVIS CT-fluorescence imaging of live mice

Molecule	Fluorescence Ratio [1]	also measured
GRRPRPRPRPW [Peptide 2]	1.60	
CLSAGKRKC [Peptide 44]	1.44	
YHWYGYTPQNVA [Peptide 33]	1.35	
YHWYGYTPQKVI [Peptide 36]	1.23	
GRRPAPRPRP [Peptide 8]	1.57	
CLADGKRKC [Peptide 43]	1.26	
WXEAAYQRFL [Peptide 12]	1.31	
GRRPRPRPRPWW [Peptide 3]	1.50	
WLSDGKRKC [Peptide 53]	1.12	
COc1cccc2c1C(=O)c1c(O)c3c(c(O)c1C2=O)C[C@@](O)(C(=O)CO)C[C@@H]3O[C@H]1C[C@H](N)[C@H](O)[C@H](C)O1 [DOX, doxorubicin]		viability at 0.5 µM (A375 melanoma cells; Homo sapiens, A-375, 72 h, DOX 0.5 μM alone, 72 h, A375, read-out: cell viability, of control): 62%; viability at 1 µM (A375 melanoma cells; Homo sapiens, A-375, 72 h, DOX 0.5 μM co-treatment with KK-11 (1 μM), 72 h, A375, read-out: cell viability, of control): 40%; viability at 1 µM (A375 melanoma cells; Homo sapiens, A-375, 72 h, DOX 1 μM alone, 72 h, A375, read-out: cell viability (cells survived)): 24%; viability at 1 µM (A375 melanoma cells; Homo sapiens, A-375, 72 h, DOX 1 μM in combination with KK-11 (1 μM), 72 h, A375, read-out: cell viability, of control): 14%; change of DOX cytotoxicity (A375 melanoma cells; KK-11 and DOX sequentially (KK-11 pretreatment 4 h, washed, then DOX 72 h)): failed to produce any changes on DOX cytotoxicity
CLSDGKRKA [Peptide 49]	1.57	
YHWYGYTAQNVI [Peptide 29]	1.32	
ALSDGKRKA [Peptide 40]	1.23	
RGEPAYQRFL [Peptide 17]	1.30	
CLSDGKRRC [Peptide 52]	1.27	
RGDAAYQRFL [Peptide 16]	1.47	
ALSGKRKC [Peptide 41]	1.32	
RGEPAYQGRFL [Peptide 18]	1.24	
YHAYGYTPQNVI [Peptide 25]	1.28	
CLSDGKAKC [Peptide 47]	1.27	
YHWAGYTPQNVI [Peptide 26]	1.29	
AHWYGYTPQNVI [Peptide 23]	1.31	
CLSDGKRAC [Peptide 48]	1.12	
GRAPRPRPRP [Peptide 7]	1.47	
EPAAYQRFTA [Peptide 13]	1.39	
ADRSKGKLA [Peptide 39]	1.27	
YHWYGYTPQNAI [Peptide 32]	1.29	

Molecule	Fluorescence Ratio [1]	also measured
YHWYGYTPQAVI [Peptide 31]	1.33	
GRRPRPRPAP [Peptide 10]	1.31	
GARPRPRPRP [Peptide 6]	1.37	
CLSDGARKC [Peptide 46]	1.35	
YAWYGYTPQNVI [Peptide 24]	1.15	
YHWYGYTPQDVI [Peptide 35]	1.35	
GRRPRPRPRPWWWW [Peptide 5]	1.43	
CLSDGKRKC [Peptide 37]	1.29	
VivoTag- Aβ-VPWxEPAYQrFL [VivoTag-KK-11]		brain penetration ([2]; ex vivo imaging): no brain penetration was observed; time by which cleared from other organs (lungs, heart, spleen) ([2]; ex vivo imaging): ≤ 6 h; time detected in kidneys ([2]; ex vivo imaging): up to 48 h; time at which fluorescence is evident in tumor xenografts ([2]; ex vivo imaging, 8 μg per mouse, tail vein): ≤ 5 min; time by which distributed to the xenograft tumor [2, 3]: ≤ 30 min; time fluorescence remained detectable in tumor xenografts [2, 3]: 25 h
YHWYGYAPQNVI [Peptide 28]	1.26	
RGDPAYQGRFL [Peptide 19]	1.35	
YGPWYNHYITQV [Peptide 22]	1.28	
CASDGKRKC [Peptide 42]	1.25	
AGRKLDSKA [Peptide 38]	1.39	
CLSEGKRKC [Peptide 50]	1.38	
FVPWLEAPYA [Peptide 15]	1.61	
GRRPRPAPRP [Peptide 9]	1.51	
YHWYGTPQNVI [Peptide 20]	1.20	
GRRPRPRPRPWWW [Peptide 4]	1.46	
RVPWLEAPYA [Peptide 14]	1.42	
YHWYGATPQNVI [Peptide 27]	1.19	
WQTNYIHPYVYG [Peptide 21]	1.21	
YHWYGYTPENVI [Peptide 34]	1.36	
YHWYGYTPANVI [Peptide 30]	1.30	
CLSDGRRKC [Peptide 51]	1.32	
CLSDAKRKC [Peptide 45]	1.22	

Reference: patent US20240059739A1, “PEPTIDES FOR INCREASING DRUG DELIVERY TO CANCER” (Chapman University, priority 2022, published 2024)
